pEC50: −log10 of the molar value.
How the values were obtained:
Assay type in all cases: cell-based
[1] = system: SW480 colon cancer cells; experiment: Cell viability assay (CellTiter-Blue) in SW480 colon cancer cells; conditions: Homo sapiens, 96 h; for inhibition at 10 µM: four days, CellTiter-Blue, read-out: percent inhibition at 10 μM (given for EC50 of >10 μM); for pEC50: four days incubation, CellTiter-Blue cell viability
Outline: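 About 2×10^3 SW480 colon cancer cells per well were exposed to compound (8-point 1:3 dilutions, 10 μM to 0.004 μM) for four days at 37 °C. Viability was read by CellTiter-Blue resazurin reduction (~3 h, Ex 560/Em 590). EC50 from nonlinear regression; above 10 μM, % inhibition at 10 μM is reported.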

[2] = system: LL29 cells (primary human fibroblasts derived from IPF patients) treated with TGF-β1, α-smooth muscle actin; experiment: Inhibition of the fibrotic process: αSMA staining in TGF-β1 treated primary human fibroblasts from IPF patients (LL29 cells); conditions: Fibroblast, 96 h; for pEC50: LL29 cells treated with TGF-β1 (20 ng/mL), 4 days; for inhibition at 10 µM: LL29 cells treated with TGF-β1, 4 days, read-out: percent inhibition in brackets (given for EC50 >10 μM)
[3] = system: IL-6 in THP-1 cells; experiment: Inhibition of IL-6 in LPS-stimulated THP-1 human monocyte cells (HTRF); conditions: IL-6 HTRF; for pEC50: 500 ng/mL LPS, 22 hours; for inhibition at 10 µM: LPS, read-out: percent inhibition in brackets (given for EC50 >10 μM)
Outline: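 THP-1 cells, serum-reduced (1% FBS) for 24 h, were exposed to compound (1:3, 10-point series from 10 μM; 0.1% DMSO) for 2 h, then 500 ng/mL LPS for 22 h at 37° C. Secreted IL-6 measured by HTRF (665/620 ratio), normalised to DMSO; EC50 by four-parameter fit, else % inhibition at 10 μM.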

Row | Structure (SMILES) | pEC50 [1] | pEC50 [3] | inhibition at 10 µM [1] | pEC50 [2] | inhibition at 10 µM [2] | inhibition at 10 µM [3]
1 | c1cncc(-c2cncc3[nH]c(-c4n[nH]c5ccc(-c6cncc(OC7CCCCC7)c6)nc45)nc23)c1 [Compound 531, 5-(5-(Cyclohexyloxy)pyridin-3-yl)-3-(7-(pyridin-3-yl)-3H-imidazo[4,5-c]pyridin-2-yl)-1H-pyrazolo[4,3-b]pyridine] | < 5.00 | 6.43 | 15.5% | 5.50 | – | –
2 | c1cc(-c2cncc3[nH]c(-c4n[nH]c5ccc(-c6cncc(OC7CCNCC7)c6)nc45)nc23)ccn1 [Compound 548, 5-(5-(Piperidin-4-yloxy)pyridin-3-yl)-3-(7-(pyridin-4-yl)-3H-imidazo[4,5-c]pyridin-2-yl)-1H-pyrazolo[4,3-b]pyridine] | < 5.00 | < 5.00 | 10.3% | 5.61 | – | 22.6%
3 | c1ccc(COc2cncc(-c3ccc4[nH]nc(-c5nc6c(-c7ccncc7)cncc6[nH]5)c4n3)c2)cc1 [Compound 554, 5-(5-(Benzyloxy)pyridin-3-yl)-3-(7-(pyridin-4-yl)-3H-imidazo[4,5-c]pyridin-2-yl)-1H-pyrazolo[4,3-b]pyridine] | < 5.00 | < 5.00 | 0% | 5.99 | – | 50.3%
4 | c1cc(-c2cncc3[nH]c(-c4n[nH]c5ccc(-c6cnccn6)nc45)nc23)ccn1 [Compound 556, 5-(Pyrazin-2-yl)-3-(7-(pyridin-4-yl)-3H-imidazo[4,5-c]pyridin-2-yl)-1H-pyrazolo[4,3-b]pyridine] | < 5.00 | < 5.00 | 13.7% | 7.85 | – | 0%
5 | Cn1cc(-c2ccc3[nH]nc(-c4nc5c(-c6cccs6)cncc5[nH]4)c3n2)cn1 [Compound 656, 5-(1-Methyl-1H-pyrazol-4-yl)-3-(7-(thiophen-2-yl)-3H-imidazo[4,5-c]pyridin-2-yl)-1H-pyrazolo[4,3-b]pyridine] | < 5.00 | < 5.00 | 1.3% | < 5.00 | 46.4% | 14.8%
6 | CN(C)CCOc1cncc(-c2ccc3[nH]nc(-c4nc5c(-c6cccs6)cncc5[nH]4)c3n2)c1 [Compound 663, N,N-Dimethyl-2-((5-(3-(7-(thiophen-2-yl)-3H-imidazo[4,5-c]pyridin-2-yl)-1H-pyrazolo[4,3-b]pyridin-5-yl)pyridin-3-yl)oxy)ethan-1-amine] | < 5.00 | < 5.00 | 15.5% | 5.91 | – | 43.8%
7 | Cc1ccc(-c2cncc3[nH]c(-c4n[nH]c5ccc(C6=CCNCC6)nc45)nc23)s1 [Compound 686, 3-(7-(5-Methylthiophen-2-yl)-3H-imidazo[4,5-c]pyridin-2-yl)-5-(1,2,3,6-tetrahydropyridin-4-yl)-1H-pyrazolo[4,3-b]pyridine] | 5.21 | < 5.00 | – | 5.31 | – | 23.8%
8 | Cn1cc(-c2ccc3[nH]nc(-c4nc5c(-c6cc(F)cc(CNS(C)(=O)=O)c6)cncc5[nH]4)c3n2)cn1 [Compound 720, N-(3-Fluoro-5-(2-(5-(1-methyl-1H-pyrazol-4-yl)-1H-pyrazolo[4,3-b]pyridin-3-yl)-3H-imidazo[4,5-c]pyridin-7-yl)benzyl)methanesulfonamide] | < 5.00 | < 5.00 | 0% | < 5.00 | 3.8% | 44.7%
9 | CS(=O)(=O)NCc1cc(F)cc(-c2cncc3[nH]c(-c4n[nH]c5ccc(-c6cncc(NC(=O)CC7CCNCC7)c6)nc45)nc23)c1 [Compound 725, N-(5-(3-(7-(3-Fluoro-5-(methylsulfonamidomethyl)phenyl)-3H-imidazo[4,5-c]pyridin-2-yl)-1H-pyrazolo[4,3-b]pyridin-5-yl)pyridin-3-yl)-2-(piperidin-4-yl)acetamide] | < 5.00 | < 5.00 | 14.6% | < 5.00 | 40.9% | 27.1%
10 | CN(C)CCNc1cc(F)cc(-c2cncc3[nH]c(-c4n[nH]c5ccc(-c6cncc(OCCN7CCCC7)c6)nc45)nc23)c1 [Compound 742, N^1-(3-Fluoro-5-(2-(5-(5-(2-(pyrrolidin-1-yl)ethoxy)pyridin-3-yl)-1H-pyrazolo[4,3-b]pyridin-3-yl)-3H-imidazo[4,5-c]pyridin-7-yl)phenyl)-N^2,N^2-dimethylethane-1,2-diamine] | < 5.00 | 5.05 | 8.2% | < 5.00 | 0% | –
11 | CN(C)CC(=O)Nc1cncc(-c2ccc3[nH]nc(-c4nc5c(-c6cccc(F)c6)cncc5[nH]4)c3n2)c1 [Compound 925, 2-(Dimethylamino)-N-(5-(3-(7-(3-fluorophenyl)-3H-imidazo[4,5-c]pyridin-2-yl)-1H-pyrazolo[4,3-b]pyridin-5-yl)pyridin-3-yl)acetamide] | < 5.00 | < 5.00 | 16.1% | < 5.00 | 8.3% | 20.1%

Second part, led by results:

Row | pEC50 [1] | pEC50 [3] | Structure (SMILES) | inhibition at 10 µM [1] | pEC50 [2] | inhibition at 10 µM [2] | inhibition at 10 µM [3]
12 | < 5.00 | < 5.00 | Fc1cccc(-c2cncc3[nH]c(-c4n[nH]c5ccc(-c6cnccn6)nc45)nc23)c1 [Compound 492, 3-(7-(3-Fluorophenyl)-3H-imidazo[4,5-c]pyridin-2-yl)-5-(pyrazin-2-yl)-1H-pyrazolo[4,3-b]pyridine] | 7.5% | < 5.00 | 0% | 24.5%
13 | < 5.00 | 6.38 | Oc1cncc(-c2ccc3[nH]nc(-c4nc5c(-c6cccnc6)cncc5[nH]4)c3n2)c1 [Compound 537, 5-(3-(7-(Pyridin-3-yl)-3H-imidazo[4,5-c]pyridin-2-yl)-1H-pyrazolo[4,3-b]pyridin-5-yl)pyridin-3-ol] | 7.6% | < 5.00 | 49.8% | –
14 | < 5.00 | 6.17 | COc1cccc(-c2cncc3[nH]c(-c4n[nH]c5ccc(-c6cccnc6)nc45)nc23)c1 [Compound 949, 3-(7-(3-Methoxylphenyl)-3H-imidazo[4,5-c]pyridin-2-yl)-5-(pyridin-3-yl)-1H-pyrazolo[4,3-b]pyridine] | 6.9% | 5.19 | – | –
15 | < 5.00 | < 5.00 | COc1cccc(-c2cncc3[nH]c(-c4n[nH]c5ccc(-c6cncc(NC(=O)Cc7ccccc7)c6)nc45)nc23)c1 [Compound 955, N-(5-(3-(7-(3-methoxylphenyl)-3H-imidazo[4,5-c]pyridin-2-yl)-1H-pyrazolo[4,3-b]pyridin-5-yl)pyridin-3-yl)-2-phenylacetamide] | 2.7% | < 5.00 | 4.2% | 27.5%
16 | < 5.00 | < 5.00 | COc1cccc(-c2cncc3[nH]c(-c4n[nH]c5ccc(-c6cncc(NC(=O)CC(C)(C)C)c6)nc45)nc23)c1 [Compound 961, N-(5-(3-(7-(3-methoxylphenyl)-3H-imidazo[4,5-c]pyridin-2-yl)-1H-pyrazolo[4,3-b]pyridin-5-yl)pyridin-3-yl)-3,3-dimethylbutanamide] | 0.4% | < 5.00 | 0% | 22.5%
17 | < 5.00 | < 5.00 | COc1cccc(-c2cncc3[nH]c(-c4n[nH]c5ccc(-c6cncc(NC(=O)C7CCCCC7)c6)nc45)nc23)c1 [Compound 967, N-(5-(3-(7-(3-Methoxylphenyl)-3H-imidazo[4,5-c]pyridin-2-yl)-1H-pyrazolo[4,3-b]pyridin-5-yl)pyridin-3-yl)cyclohexanecarboxamide] | 10.8% | < 5.00 | 0% | 33.9%
18 | < 5.00 | < 5.00 | COc1cccc(-c2cncc3[nH]c(-c4n[nH]c5ccc(-c6cn[nH]c6)nc45)nc23)c1 [Compound 975, 3-(7-(3-Methoxylphenyl)-3H-imidazo[4,5-c]pyridin-2-yl)-5-(1H-pyrazol-4-yl)-1H-pyrazolo[4,3-b]pyridine] | 4.1% | < 5.00 | 43.2% | 0%
19 | < 5.00 | < 5.00 | COc1cccc(-c2cncc3[nH]c(-c4n[nH]c5ccc(-c6cncc(OC7CCNCC7)c6)nc45)nc23)c1 [Compound 980, 3-(7-(3-Methoxylphenyl)-3H-imidazo[4,5-c]pyridin-2-yl)-5-(5-(piperidin-4-yloxy)pyridin-3-yl)-1H-pyrazolo[4,3-b]pyridine] | 19.6% | 5.57 | – | 34.1%
20 | < 5.00 | 5.87 | COc1cccc(-c2cncc3[nH]c(-c4n[nH]c5ccc(-c6cncc(O)c6)nc45)nc23)c1 [Compound 985, 5-(3-(7-(3-Methoxylphenyl)-3H-imidazo[4,5-c]pyridin-2-yl)-1H-pyrazolo[4,3-b]pyridin-5-yl)pyridin-3-ol] | 7.1% | 5.63 | – | –

Reference: patent publication US10188634B2, “3-(3H-imidazo[4,5-C]pyridin-2-yl)-1 H-pyrazolo[4,3-B]pyridines and therapeutic uses thereof” (Samumed, LLC, priority 2015, dated 2019)
